In PMC7669869, “AdipoR1/AdipoR2 dual agonist recovers nonalcoholic steatohepatitis and related fibrosis via endoplasmic reticulum-mitochondria axis” (Nature Communications, 2020):
Non-standard residues stand in square brackets, D forms with d. Residues, ends and D or L forms follow the SMILES beside them. Nva = CCC[C@H](N)C(=O)O

System: HFD induced NASH mice
Test: HFD mice: serum and liver biochemical assays (ALT, FFA, LDL-C, hepatic TG, glycogen)
Format: in vivo, mouse
Procedure: Male C57BL/6J mice of 6–8 weeks of age (20–24 g) were used in these experiments including the NAFLD model and liver fibrosis model. The mice were purchased from Guangdong Medical Laboratory Animal Center and housed in standard isolator cages and maintained on a room temperature of 25 °C and a 12 h:12 h light/dark cycle. At the end of the experiments, mice were fasted 8 h prior to sacrifice. Liver tissue and/or epididymal adipose tissue were flash frozen in liquid nitrogen (with or without RNAlater (TransGen Biotech, China)) and stored at −80 °C for future use, or fixed in 10% paraformaldehyde for histological assays. Blood samples were obtained from the posterior venous plexus of the eyes of anesthetized mice, Blood was separated by centrifugation at 1000g for 15 min Serum was then stored at −80 °C. The ethical approval has been obtained from Animal Care and Use Committee of the Sun Yat-sen University. All animals were maintained in pathogen-free conditions and cared for in accordance with policies and certification of the Association for Assessment and Accreditation of Laboratory Animal Care International (AAALAC International).
The NASH model was conducted with feeding a HFD for 16 weeks combine with a MCD diet (Methionine/Choline Deficient Diet, Medicience, China) in the last 4 weeks. […]
The levels of ALT, AST, TC and TG in serum were determined using certain commercial assay kits (Nanjing Jiancheng Bioengineering Institute, China). Fasting adiponectin and insulin were quantified in plasma samples using corresponding commercially available Elisa kits (Cloud-Clone Crop, USA).
The levels of TG and HYP in liver tissue were detected with certain commercial assay kit (Nanjing Jiancheng Bioengineering Institute, China). […] The cryostat-cut slices were stained with freshly prepared Oil Red O working solution for 7 min Two independent experimenters who were blinded to the treatment evaluated the staining slides and analyzed the score for steatosis, glucogen accumulation and collagen proliferation area.

In the case of CCC[C@H](NC(=O)[C@@H]1CCCN1)C(=O)N[C@@H](CC(C)C)C(=O)N[C@@H](Cc1ccc(O)cc1)C(=O)N[C@@H](Cc1ccc(O)cc1)C(=O)N[C@@H](Cc1ccccc1)C(=O)N[C@@H](C)C(N)=O [JT003] (H-P[Nva]LYYFA-NH2), the “decrease of the circulating lipid in the HFD group” value (JT003 500 μg kg−1, in words) is reported as “reverted”, the “Hepatocytes TG and serum LDL-C contents” value (JT003 500 μg kg−1 i.p. daily 4 weeks, in words) is reported as “obviously reduced” and the ALT level (JT003 500 μg kg−1 i.p. daily 4 weeks, vs HFD, in words) is reported as “reduced”.
